Experimental data reported in patent US20110105599A1, “THERAPEUTIC OR PREVENTIVE AGENTS FOR ISCHEMIC NEUROPATHY” (Dainippon Sumitomo Pharma Co., Ltd., priority 2003, published 2011).
“Also recorded” adds a separate entry of the source.

Columns and labels:
[1] = tested on: increased intra ocular pressure model (retina of SD rats); assay: Pharmacological effect on an increased intra ocular pressure model (retinal layer thickness); format: in vivo, rat; details: for thickness of outer nuclear layer (ONL), Average / thickness of inner nuclear layer (INL), Average / thickness of inner plexus layer (IPL), Average: 5 μl of 0.1 mg/ml to the vitreous body; for cell death of inner granular cells due to increased intra ocular pressure (in words): overall conclusion of the example; for decrease of the thickness of the inner granular cell layer (INL) due to increased intra ocular pressure (in words) / decrease of the thickness of the inner plexus layer (IPL) due to increased intra ocular pressure (in words): compared to IOP increase load + PBS group, Student's t-test; for influence of administration on the outer nuclear layer (in words): rats with IOP increase load, pre- or post-administration to the vitreous body
Text: The retinal nerve consists of the extraretinal granular layer, granule cells in the retina and the gangliocyte layer, and granule cells in the retina and the gangliocyte layer receive blood supply from the central retinal artery. When pressure is imposed on the anterior chamber, a load is imposed on the cribrosa lamina which is not covered with the sclera and the central retinal artery which extends through this area is occluded, and as a result, granule cells in the retina and the gangliocyte layer becomes ischemic, and cell death occurs.
The damage of granule cells in the retina can be readily evaluated as “the thickness of the inner nuclear layer (INL)” representing the change in number of the cells. Since the inner plexus layer, synapses between each neurons, is also damaged by the increase in the intra ocular pressure and made thinner, the thickness of the inner plexus layer (IPL) becomes an indicator to show the degree of damage. Therapeutic or preventive agents for retinal neuropathy having a suppressive effect have been explored using these two parameters as indices.
20 SD rats (6-week old) were used and divided into the following groups. • Sham operation (sometimes abbreviated as Sham ope hereinbelow): Five rats (Of these, 4 rats were used for analysis) • IOP (Intra Ocular pressure) treatment+PBS (5 μl was administered to the vitreous body): Five rats (Of these, 4 rats were used for analysis) • IOP (Intra Ocular pressure) treatment+test compound (5 μl was pre-administered to the vitreous body): Five rats (Of these, 4 rats were used for analysis) • IOP (Intra Ocular pressure) treatment+test compound (5 μl was post-administered to the vitreous body): Five rats (Of these, 4 rats were used for analysis) • (2) Increase in Intra Ocular Pressure
By the following steps, increased intra ocular pressure model animals were prepared and a drug (test compound) was administered thereto.
(i) A rat was set to a brain stereotaxic apparatus under anesthesia with […].
(ii) The head of the rat was fixed and an eyeball was pricked with a 26-G needle attached to the tip of a tube, which was connected to a sphygmomanometry device, into the rat anterior chamber and a load was imposed so that the inner pressure of the anterior chamber was 140 to 160 mmHg.
(iii) As for the timing of the administration of a drug into the vitreous body, the drug was administered 15 minutes before the intra ocular pressure increasing load for pre-administration, while the drug was administered 15 minutes after the intra ocular pressure increasing load for post-administration.
(iv) Increase in intra ocular pressure was maintained for one hour, and the rat was relieved from the brain anchor after the intra ocular pressure loading and ordinarily bred for one week.
(v) After sacrificed by suffocation with carbon dioxide, eyeballs were removed.
(vi) A paraffin section of the retina was prepared and dyed with 0.5% cresyl violet.
(vii) A histological image at a position 880 μm from the optic papilla (upper part of the retina) was photographed and the thicknesses of the outer nuclear layer (ONL), inner nuclear layer (INL) and inner plexus layer (IPL) were measured. • (3) Preparation of a Drug and Administration Method
SPF-3059-1 as a test substance was dissolved in PBS to a concentration of 1 mg/ml and further diluted with PBS to 0.1 mg/ml immediately before use. 5 μl of the diluted solution was administered to the vitreous body of the left eye of a rat with a 30G double needle. • (4) Significance Test
Intra ocular pressure was increased by the method of above (2) and significance tests were conducted by Student's t-test and Welch & F-test on the retinal protection effect of SPF-3059-1 administration in rats to which PBS was administered to the vitreous body.
Each of the thickness of outer nuclear layer, inner nuclear layer and inner plexus layer was measured using the retina of the rats in each treatment group, and a cytoprotective effect was evaluated. […]

[2] = tested on: increased intra ocular pressure model (retina of SD rats); assay: as above; format: in vivo, rat; details: Example 2, 7-week old SD rats, 5 μl of 0.1 mg/ml to the vitreous body
[3] = Solubility (physico-chemical properties of the prepared compound); format: physicochemical
Text: Each compound of the present invention is a known compound and is disclosed by WO02/09756 or WO03/062243 and can be produced from SPF-3059 strain which is a fungus belonging to the genus Penicillium. Production process and physico-chemical properties are described in the above international publication pamphlets. Specifically, the following compounds were respectively prepared. • (Compound SPF-3059-1) • Appearance: Yellow powder • High resolution fast atom bombardment mass spectrum • (HRFAB-MS) m/z (M+H)^+: • Observed value: 579.0772 • Calculated value: 579.0776 • Molecular formula: C28H18O14 • Ultraviolet visible absorption spectrum λ max (in methanol) nm(ε): […]

cultured nerve cells = details: in a short period of time; as low as; cited from earlier work
[4] = Example 1, 6-week old SD rats, IOP increase load + test substance post-administration, one week after load
[5] = Example 1, 6-week old SD rats, IOP increase load + test substance pre-administration, one week after load
[6] = Example 2, 7-week old SD rats, IOP increase load + test substance post-administration
[7] = IOP increase load + test substance pre-administration

CC(=O)c1c(C)c(C(=O)C2COc3cc(O)c(O)c(C(=O)O)c3C2=O)cc2c(=O)c3c(C(=O)O)c(O)c(O)cc3oc12 (centres unmarked) [SPF-3059-1]
thickness of outer nuclear layer (ONL), Average ([1]; Example 1, 6-week old SD rats, IOP increase load + test substance post-administration (15 minutes after load), one week after load): 45.56 μm | thickness of inner nuclear layer (INL), Average [1, 4]: 27.89 μm | thickness of inner plexus layer (IPL), Average [1, 4]: 40.45 μm | thickness of outer nuclear layer (ONL), Average ([1]; Example 1, 6-week old SD rats, IOP increase load + test substance pre-administration (15 minutes before load), one week after load): 45.79 μm | thickness of inner nuclear layer (INL), Average [1, 5]: 29.56 μm | thickness of inner plexus layer (IPL), Average [1, 5]: 46.89 μm | cell death of inner granular cells due to increased intra ocular pressure (in words) [1]: suppressed | decrease of the thickness of the inner granular cell layer (INL) due to increased intra ocular pressure (in words) ([1]; post-administration): tends to be suppressed; also recorded: suppressing tendency | decrease of the thickness of the inner plexus layer (IPL) due to increased intra ocular pressure (in words) ([1]; post-administration): tends to be suppressed; also recorded: suppressing tendency | decrease of the thickness of the inner granular cell layer (INL) due to increased intra ocular pressure (in words) ([1]; pre-administration): suppressed significantly; also recorded: suppressing effect | decrease of the thickness of the inner plexus layer (IPL) due to increased intra ocular pressure (in words) ([1]; pre-administration): suppressed significantly; also recorded: suppressing effect | influence of administration on the outer nuclear layer (in words) [1]: does not have an influence

CC(=O)c1cc2c(=O)c3c(C(=O)O)c(O)c(O)cc3oc2c(C(C)=O)c1-c1coc2cc(O)c(O)c(C(=O)O)c2c1=O [SPF-3059-5]
thickness of inner nuclear layer (INL), Average [1, 6]: 36.76 μm | thickness of inner plexus layer (IPL), Average [1, 6]: 55.15 μm | cell death of inner granular cells due to increased intra ocular pressure (in words) [1]: suppressed | decrease of the thickness of the inner granular cell layer (INL) due to increased intra ocular pressure (in words) ([1]; post-administration): shown statistically significantly | decrease of the thickness of the inner plexus layer (IPL) due to increased intra ocular pressure (in words) ([1]; post-administration): suppressed significantly | decrease of the thickness of the inner granular cell layer (INL) due to increased intra ocular pressure (in words) ([1]; pre-administration): tends to be suppressed; also recorded: suppressing tendency | decrease of the thickness of the inner plexus layer (IPL) due to increased intra ocular pressure (in words) ([1]; pre-administration): suppressed significantly; also recorded: suppressing effect | influence of administration on the outer nuclear layer (in words) [1]: does not have an influence | thickness of outer nuclear layer (ONL), Average ([2]; IOP increase load + test substance post-administration): 61.76 μm | thickness of inner nuclear layer (INL), Average [2, 7]: 33.09 μm | thickness of inner plexus layer (IPL), Average [2, 7]: 55.88 μm | thickness of outer nuclear layer (ONL), Average [2, 7]: 60.29 μm

CC(=O)c1cc2c(=O)c3c(C(=O)O)c(O)c(O)cc3oc2c(C(C)=O)c1-c1coc2cc(O)c(O)cc2c1=O [SPF-3059-24]
Solubility ([3]; in DMSO): soluble | Solubility ([3]; in hexane): Insoluble | Solubility ([3]; in methanol): soluble | Solubility ([3]; in water): Insoluble

B1: semaphorin 3A: endogenous protein which collapses the nerve growth cone and suppresses axon elongation (protein, UniProt Q14563 21-771, looked up)
Semaphorin-3A: NYQNGKNNVPRLKLSYKEMLESNNVITFNGLANSSSYHTFLLDEERSRLYVGAKDHIFSFDLVNIKDFQKIVWPVSYTRRDECKWAGKDILKECANFIKVLKAYNQTHLYACGTGAFHPICTYIEIGHHPEDNIFKLENSHFENGRGKSPYDPKLLTASLLIDGELYSGTAADFMGRDFAIFRTLGHHHPIRTEQHDSRWLNDPKFISAHLISESDNPEDDKVYFFFRENAIDGEHSGKATHARIGQICKNDFGGHRSLVNKWTTFLKARLICSVPGPNGIDTHFDELQDVFLMNFKDPKNPVVYGVFTTSSNIFKGSAVCMYSMSDVRRVFLGPYAHRDGPNYQWVPYQGRVPYPRPGTCPSKTFGGFDSTKDLPDDVITFARSHPAMYNPVFPMNNRPIVIKTDVNYQFTQIVVDRVDAEDGQYDVMFIGTDVGTVLKVVSIPKETWYDLEEVLLEEMTVFREPTAISAMELSTKQQQLYIGSTAGVAQLPLHRCDIYGKACAECCLARDPYCAWDGSACSRYFPTAKRRTRRQDIRNGDPLTHCSDLHHDNHHGHSPEERIIYGVENSSTFLECSPKSQRALVYWQFQRRNEERKEEIRVDDHIIRTDQGLLLRSLQQKDSGNYLCHAVEHGFIQTLLKVTLEVIDTEHLEELLHKDDDGDGSKTKEMSNSMTPSQKVWYRDFMQLINHPNLNTMDEFCEQVWKRDRKQRRQRPGHTPGNSNKWKHLQENKKGRNRRTHEFERAPRSV
concentration inducing growth cone collapse of the cultured nerve cells (cultured nerve cells): 10 pM
